One test deals with T1, RIPK1 (h) (Homo sapiens, UniProt Q13546).
T1 construct: purchased Eurofins Cerep (KinaseProfiler service)
T1 sequence (Q13546 1-671): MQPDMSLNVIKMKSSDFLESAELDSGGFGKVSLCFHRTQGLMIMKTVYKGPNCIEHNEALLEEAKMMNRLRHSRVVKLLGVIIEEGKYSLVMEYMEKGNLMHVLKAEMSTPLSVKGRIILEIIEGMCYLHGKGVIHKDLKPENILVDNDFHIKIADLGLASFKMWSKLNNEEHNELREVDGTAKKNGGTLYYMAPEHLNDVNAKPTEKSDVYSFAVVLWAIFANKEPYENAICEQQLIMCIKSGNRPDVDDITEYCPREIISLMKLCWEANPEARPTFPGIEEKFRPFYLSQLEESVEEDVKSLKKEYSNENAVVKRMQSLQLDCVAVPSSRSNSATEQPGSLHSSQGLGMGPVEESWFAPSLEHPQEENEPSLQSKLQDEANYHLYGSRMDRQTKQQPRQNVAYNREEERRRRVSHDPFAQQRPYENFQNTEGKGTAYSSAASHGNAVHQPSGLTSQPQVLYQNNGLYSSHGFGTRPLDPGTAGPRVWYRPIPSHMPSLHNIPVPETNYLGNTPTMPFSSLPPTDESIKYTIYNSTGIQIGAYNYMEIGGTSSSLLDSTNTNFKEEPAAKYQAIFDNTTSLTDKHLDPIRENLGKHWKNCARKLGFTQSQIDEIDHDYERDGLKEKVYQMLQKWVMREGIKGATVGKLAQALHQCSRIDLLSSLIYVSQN
Nature of the test: KinaseProfiler assay (Eurofins Cerep), hRIPK1 inhibition. In kind it is biochemical. To be noted: 9 concentrations (0.0001 μM–1.0 μM), 10 μM ATP. As to the method: RIPK1 (h) is incubated with 8 mM MOPS pH 7.0, 0.2 mM EDTA, 0.33 mg/mL myelin basic protein, 10 mM Magnesium acetate and [γ-^33P-ATP] (specific activity and concentration as required). The reaction is initiated by the addition of the Mg/ATP mix. After incubation for 120 min at room temperature, the reaction is stopped by the addition of phosphoric acid to a concentration of 0.5%.

Another test concerns HT-29. Nature of the test: Necroptosis (hTNF + TAK1i + zVAD.fmk) in HT-29 cells, Sytox Green. To be noted: Homo sapiens, HT-29, read-out: Necroptosis hTNF + TAK1i + zVAD.fmk HT-29 IC50.
A further test addresses T2, PERK (Mus musculus, UniProt Q9Z2B5).
T2 construct: Immortalized MEFs were pretreated for 30 min with increasing concentrations of GSK’157 and the indicated compounds and stimulated with tunicamycin; endogenous in cells; host or cells: immortalized mouse embryonic fibroblasts (MEFs, C57Bl6/J)
T2 sequence (Q9Z2B5 29-1114): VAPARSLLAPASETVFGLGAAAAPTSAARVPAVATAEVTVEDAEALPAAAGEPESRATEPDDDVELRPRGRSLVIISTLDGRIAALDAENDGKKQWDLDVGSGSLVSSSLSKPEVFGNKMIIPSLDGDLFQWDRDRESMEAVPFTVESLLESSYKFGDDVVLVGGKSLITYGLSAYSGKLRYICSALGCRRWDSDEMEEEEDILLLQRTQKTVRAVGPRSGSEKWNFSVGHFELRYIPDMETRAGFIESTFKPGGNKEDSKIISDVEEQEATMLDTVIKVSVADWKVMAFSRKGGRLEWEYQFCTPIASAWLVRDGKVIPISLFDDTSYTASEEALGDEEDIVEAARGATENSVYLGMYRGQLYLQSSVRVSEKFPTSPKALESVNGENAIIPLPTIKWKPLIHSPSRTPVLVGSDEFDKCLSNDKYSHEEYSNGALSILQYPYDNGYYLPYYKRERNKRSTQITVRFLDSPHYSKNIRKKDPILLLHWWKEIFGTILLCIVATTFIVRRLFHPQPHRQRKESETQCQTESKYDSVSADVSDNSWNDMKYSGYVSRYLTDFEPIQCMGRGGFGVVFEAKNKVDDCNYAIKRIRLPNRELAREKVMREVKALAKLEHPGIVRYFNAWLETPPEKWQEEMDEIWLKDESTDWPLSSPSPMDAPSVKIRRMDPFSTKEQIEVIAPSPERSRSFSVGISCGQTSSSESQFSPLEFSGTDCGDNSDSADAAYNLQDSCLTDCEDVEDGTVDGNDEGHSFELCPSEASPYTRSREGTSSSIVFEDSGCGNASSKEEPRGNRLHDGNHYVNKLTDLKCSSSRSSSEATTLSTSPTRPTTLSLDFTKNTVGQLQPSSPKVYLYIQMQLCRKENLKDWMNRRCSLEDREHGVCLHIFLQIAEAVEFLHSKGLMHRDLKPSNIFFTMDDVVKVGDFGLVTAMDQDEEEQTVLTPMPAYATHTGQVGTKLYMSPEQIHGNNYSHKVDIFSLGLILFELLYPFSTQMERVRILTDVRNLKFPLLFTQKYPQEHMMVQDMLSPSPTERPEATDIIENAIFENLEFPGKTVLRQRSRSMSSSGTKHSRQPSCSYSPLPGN
Briefly: PERK autophosphorylation by Western blot in tunicamycin-stimulated immortalized MEFs. In kind it is cell-based. As to the method:
MEFs were seeded in 6-well plates at a density of 300.000 cells/well in 2 mL. The next day, the cells were suspended in 1 mL of medium and pre-treated for 30 min with the indicated compounds at 1/5 dilutions series for PERK ranging from 5 to 0.04 µM and 1 μg/mL of Tm followed by 4 h treatment with 20 ng/mL of hTNF. For RIPK1, the cells were pre-treated at 1/10 dilutions series ranging from 10 to 0.01 nM, 50 µM zVAD.fmk and 1 µM TAKi before stimulation with 20 ng/mL of hTNF for 2.5 h. Then, the cells were washed two times with 1 mL of ice-cold PBS before lysis in 0.2 mL of Laemmli buffer 1x (10% (w/v) SDS, 50% glycerol, 0.5% bromophenol blue, 250 mM Tris–HCl pH 6.8) and 250 mM of dithiothreitol (DTT). The cell lysate was then collected and boiled at 95 °C for 10min and stored at −20°C. Proteins expression was later monitored by immunoblotting.
Their activities were evaluated by comparing the intensity of the signal to unstimulated MEFs (considered as zero phosphorylation) and Tunicamycin stimulated cells (considered as 100% PERK phosphorylation). […] The MEFs were pre-incubated for 30 min with the different compounds (0.01 nM–1000 nM) and then stimulated with human TNF (20 ng/mL) for 2.5 h. Similar to the PERK assessment, IC50 values for RIPK1 inhibition were estimated as a range of concentrations, and are reported in Table 1.
For orientation: Immunoblotting shows a protein as a band on a membrane.

The term IC50 denotes the concentration that inhibits the measured activity by half.

SMILES strings stand for the structures.

Method for HT-29: In brief, the cells were seeded in duplicate at 10,000 cells per well in a 96-well adherent plate and incubated overnight at 37°C with 5% CO2. […] All the compound stock solutions were prepared in DMSO at 200 µM concentration. After stimulating the cells with human TNF at 20 ng/mL the plate was transferred to the incubator. Sytox Green intensity was measured in function of time at 0, 14 and 24 h with an excitation filter of 485 nm, an emission filter of 520 nm. The cell death was calculated by subtracting the background fluorescence from the induced Sytox Green fluorescence and by dividing the obtained result by the maximal fluorescence (minus the background fluorescence) obtained by permeabilization of the cells by using Triton X-100 at a final concentration of 0.1%. Curves were plotted in GraphPad 9 for the IC50 calculation.
To induce necroptosis in human colorectal adenocarcinoma cell line (HT-29) together with hTNF and the pan caspases inhibitor zVAD.fmk, TAK1 inhibitor is also needed.

As to `Cn1cc(-c2ccc3c(c2F)CCN3C(=O)Cc2ccc(C(F)(F)F)cn2)c2c(N)ncnc21` [Compound 22], the IC50 against RIPK1 (h) is 139 nM; with HT-29 it was 6.5 nM; at PERK (immortalized MEFs, 30 min pretreatment, tunicamycin 1 μg/ml for 4 h, PERK autophosphorylation, read-out: PERK inhibition (IC50 estimated from a Western blot)), more than 5000 nM. For the same compound, the “PERK inhibition at the tested concentrations (in words)” value at PERK (MEFs, Western blot, 0.04, 0.2, 1 and 5 µM, highest concentration tested 5 µM) is on record as “no PERK inhibition”.

Source of the values: paper PMC10119423, “From PERK to RIPK1: Design, synthesis and evaluation of novel potent and selective necroptosis inhibitors” (Frontiers in Chemistry, 2023).
